In ChEMBL document CHEMBL1201862, “PubChem BioAssay data set” (2004):
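Step 1: Grow cells in 96-well plates. Step 2: Expose to compound for 48 hours at 5 concentrations. Step 3: Interpolate endpoints linearly; if unreached, use highest concentration. Here, GI50 denotes the concentration required for 50% inhibition of growth.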 Active and inactive are the calls of the source. Cut-off read from the data, not from the text of the source: active = GI50 up to about 1.1 µM and inactive = higher.

Tests used:
Experiment in all cases: NCI anticancer screen, dose series, 48 h
UACC-62 = tested on: UACC-62
DLD-1 = tested on: DLD-1
UO-31 = tested on: UO-31
DMS-273 = tested on: DMS-273
CCRF-CEM = tested on: CCRF-CEM
HCT-116 = tested on: HCT-116
SK-MEL-28 = tested on: SK-MEL-28
MOLT-4 = tested on: MOLT-4
SK-OV-3 = tested on: SK-OV-3
XF498 = tested on: XF498
SR = tested on: SR
A498 = tested on: A498
COLO 205 = tested on: COLO 205
HL-60 = tested on: HL-60
OVCAR-4 = tested on: OVCAR-4
K562 = tested on: K562
NCI-H226 = tested on: NCI-H226
M14 = tested on: M14
HOP-62 = tested on: HOP-62
M19-MEL = tested on: M19-MEL
CAKI-1 = tested on: CAKI-1
SK-MEL-2 = tested on: SK-MEL-2
SNB-75 = tested on: SNB-75
NCI-H522 = tested on: NCI-H522
SN12C = tested on: SN12C
HCC 2998 = tested on: HCC 2998
LXFL 529 = tested on: LXFL 529
786-0 = tested on: 786-0
SF-539 = tested on: SF-539
SF-268 = tested on: SF-268
DMS-114 = tested on: DMS-114
IGROV-1 = tested on: IGROV-1
NCI-H23 = tested on: NCI-H23
Malme-3M = tested on: Malme-3M
ACHN = tested on: ACHN
RPMI-8226 = tested on: RPMI-8226
SNB-78 = tested on: SNB-78
HOP-92 = tested on: HOP-92
RXF 631 = tested on: RXF 631
RXF 393 = tested on: RXF 393
OVCAR-8 = tested on: OVCAR-8
UACC-257 = tested on: UACC-257
SK-MEL-5 = tested on: SK-MEL-5
HT-29 = tested on: HT-29
KM-20L2 = tested on: KM-20L2
A549 = tested on: A549
LOX IMVI = tested on: LOX IMVI
EKVX = tested on: EKVX
SNB-19 = tested on: SNB-19
OVCAR-3 = tested on: OVCAR-3
SF-295 = tested on: SF-295
NCI-H460 = tested on: NCI-H460
U-251 = tested on: U-251
KM12 = tested on: KM12
HCT-15 = tested on: HCT-15
SW-620 = tested on: SW-620

In the case of `Cc1cn(C2CC(N(C)C)C(CO)O2)c(=O)[nH]c1=O` (stereo not drawn), the GI50 (UACC-62) is reported as > 100 µM (inactive), the GI50 (DLD-1) is reported as > 100 µM (inactive) and the GI50 (UO-31) is reported as > 100 µM (inactive). The GI50 (DMS-273) was > 100 µM (inactive), the GI50 (CCRF-CEM) was > 100 µM (inactive) and the GI50 (HCT-116) was > 100 µM (inactive). The GI50 (SK-MEL-28) was > 100 µM (inactive), the GI50 (MOLT-4) was > 100 µM (inactive) and the GI50 (SK-OV-3) was > 100 µM (inactive). The GI50 (XF498) was > 100 µM (inactive), the GI50 (SR) was > 100 µM (inactive) and the GI50 (A498) was > 100 µM (inactive). For the same compound, the GI50 (COLO 205) was > 100 µM (inactive), the GI50 (HL-60) was > 100 µM (inactive) and the GI50 (OVCAR-4) was > 100 µM (inactive). The GI50 (K562) was > 100 µM (inactive), the GI50 (NCI-H226) was > 100 µM (inactive) and the GI50 (M14) was > 100 µM (inactive). The GI50 (HOP-62) was > 100 µM (inactive), the GI50 (M19-MEL) was > 100 µM (inactive) and the GI50 (CAKI-1) was > 100 µM (inactive). For the same compound, the GI50 (SK-MEL-2) was > 100 µM (inactive), the GI50 (SNB-75) was > 100 µM (inactive) and the GI50 (NCI-H522) was > 100 µM (inactive). For the same compound, the GI50 (SN12C) was > 100 µM (inactive), the GI50 (HCC 2998) was > 100 µM (inactive) and the GI50 (LXFL 529) was > 100 µM (inactive). For the same compound, the GI50 (786-0) was > 100 µM (inactive), the GI50 (SF-539) was > 100 µM (inactive) and the GI50 (SF-268) was > 100 µM (inactive). The GI50 (DMS-114) was > 100 µM (inactive), the GI50 (IGROV-1) was > 100 µM (inactive) and the GI50 (NCI-H23) was > 100 µM (inactive). For the same compound, the GI50 (Malme-3M) was > 100 µM (inactive), the GI50 (ACHN) was > 100 µM (inactive) and the GI50 (RPMI-8226) was > 100 µM (inactive). The GI50 (SNB-78) was > 100 µM (inactive), the GI50 (HOP-92) was > 100 µM (inactive) and the GI50 (RXF 631) was > 100 µM (inactive).
With `CNS(=O)(=O)NNS(=O)(=O)c1ccc(F)cc1` the GI50 (UACC-62) was > 100 µM (inactive), the GI50 (RXF 393) was > 100 µM (inactive) and the GI50 (OVCAR-8) was > 100 µM (inactive). The GI50 (DLD-1) was > 100 µM (inactive), the GI50 (UACC-257) was > 100 µM (inactive) and the GI50 (UO-31) was > 100 µM (inactive). The GI50 (DMS-273) was > 100 µM (inactive), the GI50 (CCRF-CEM) was > 100 µM (inactive) and the GI50 (HCT-116) was > 100 µM (inactive). The GI50 (MOLT-4) was > 100 µM (inactive), the GI50 (XF498) was > 100 µM (inactive) and the GI50 (SR) was > 100 µM (inactive). For the same compound, the GI50 (SK-MEL-5) was > 100 µM (inactive), the GI50 (HT-29) was > 100 µM (inactive) and the GI50 (A498) was > 100 µM (inactive). For the same compound, the GI50 (COLO 205) was > 100 µM (inactive), the GI50 (HL-60) was > 100 µM (inactive) and the GI50 (KM-20L2) was > 100 µM (inactive). The GI50 (A549) was > 100 µM (inactive), the GI50 (OVCAR-4) was > 100 µM (inactive) and the GI50 (K562) was > 100 µM (inactive). For the same compound, the GI50 (NCI-H226) was > 100 µM (inactive), the GI50 (LOX IMVI) was > 100 µM (inactive) and the GI50 (M14) was > 100 µM (inactive). For the same compound, the GI50 (EKVX) was > 100 µM (inactive), the GI50 (SNB-19) was > 100 µM (inactive) and the GI50 (OVCAR-3) was > 100 µM (inactive). The GI50 (HOP-62) was > 100 µM (inactive), the GI50 (M19-MEL) was > 100 µM (inactive) and the GI50 (CAKI-1) was > 100 µM (inactive). The GI50 (SK-MEL-2) was > 100 µM (inactive), the GI50 (SNB-75) was > 100 µM (inactive) and the GI50 (NCI-H522) was > 100 µM (inactive). The GI50 (SF-295) was > 100 µM (inactive), the GI50 (NCI-H460) was 59.3 µM (inactive) and the GI50 (LXFL 529) was > 100 µM (inactive). For the same compound, the GI50 (U-251) was > 100 µM (inactive), the GI50 (786-0) was > 100 µM (inactive) and the GI50 (KM12) was > 100 µM (inactive). The GI50 (HCT-15) was greater than 100 µM, the GI50 (SF-539) was > 100 µM (inactive) and the GI50 (SF-268) was > 100 µM (inactive). For the same compound, the GI50 (DMS-114) was > 100 µM (inactive), the GI50 (IGROV-1) was > 100 µM (inactive) and the GI50 (NCI-H23) was > 100 µM (inactive). The GI50 (ACHN) was > 100 µM (inactive), the GI50 (SW-620) was > 100 µM (inactive) and the GI50 (RPMI-8226) was > 100 µM (inactive). For the same compound, the GI50 (RXF 631) was > 100 µM (inactive).
